Measurements published in patent US20250213563A1, “SUBSTITUTED PYRIMIDIN-4(3H)-ONES FOR USE IN TREATING CANCER” (NAVIRE PHARMA, INC., priority 2021, published 2025).

Assays:
[1] = Single-dose pharmacokinetics, CD-1 mouse; format: in vivo, mouse (CD-1, female); details: for AUC(0-t): read-out: AUC0→24
Method: (§1) The pharmacokinetic (PK) parameters of Compound (10b) (freebase) were determined following single intravenous (IV) and oral (PO) administration in female CD-1 mouse, female C57BL/6 mouse (PO only), male Sprague Dawley rat, male Beagle dog, and male Cynomolgus monkey. Additional evaluation of the PK properties of Compound (10b) was obtained following single dose PO administration in female CD-1 mouse, male Sprague Dawley rat and male Beagle dog over a dose range spanning 10 to 300 mg/kg (mouse and rat) and 1 to 100 mg/kg (dog). The intravenous dose solutions were prepared in 20% DMSO-60% PEG400-20% water and the oral dose solutions as suspensions in 0.5% methylcellulose in water, unless otherwise noted. Plasma concentration profiles were generated from serial sampling in individual animals up to 24 hours post dose, except for the studies in mice where composite sampling methods were used (i.e. 3 sampling times per mouse; 9 mice per group). […] Exposures increased with increasing dose level across species, in a dose-proportional manner in mouse and dog, and in a greater than dose-proportional manner in rat (80× increase in AUC with a 30× increase in dosage).

[2] = target: T1, full-length human SHP2 wild-type enzyme (Homo sapiens, UniProt Q06124); assay: SHP2 enzymatic assay (DiFMUP), full-length enzyme; format: biochemical; details: in presence of 1 μM bistyrosylphorphorylated peptide; mean±SD, 34 independent test occasions
T1 construct: full-length human SHP2 (amino acid 1-597); 6xHis (TEV site) (N, cleaved yes); made in house; host or cells: E. coli BL21 (DE3)
T1 sequence (Q06124 1-597 isoform Q06124-1): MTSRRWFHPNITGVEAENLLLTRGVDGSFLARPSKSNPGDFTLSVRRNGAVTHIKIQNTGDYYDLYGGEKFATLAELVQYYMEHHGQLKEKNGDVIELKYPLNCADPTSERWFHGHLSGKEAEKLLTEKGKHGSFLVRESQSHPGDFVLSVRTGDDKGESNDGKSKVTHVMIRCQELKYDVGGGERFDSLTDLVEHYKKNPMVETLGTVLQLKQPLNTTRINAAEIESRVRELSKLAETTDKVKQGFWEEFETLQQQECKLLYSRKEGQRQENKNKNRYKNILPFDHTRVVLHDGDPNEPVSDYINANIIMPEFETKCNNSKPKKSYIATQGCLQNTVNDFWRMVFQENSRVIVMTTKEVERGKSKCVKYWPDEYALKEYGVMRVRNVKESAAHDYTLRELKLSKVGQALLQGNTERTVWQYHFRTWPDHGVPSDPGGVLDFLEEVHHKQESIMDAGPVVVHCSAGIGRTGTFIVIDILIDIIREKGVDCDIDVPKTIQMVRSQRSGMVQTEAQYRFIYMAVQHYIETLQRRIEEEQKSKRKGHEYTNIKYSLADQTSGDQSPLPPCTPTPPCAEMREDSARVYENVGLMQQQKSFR
Method: Protein purification: The recombinant DNA for full-length human SHP2 (amino acid 1-597) or the phosphatase domain of human SHP2 (amino acid Ala237-Ile529) was cloned into a pET30 vector (Sigma #69909-3), which was modified to contain a TEV protease site after the N-terminal 6×His tag. The expression vector was transformed into E. coli BL21 (DE3) (NEB #C2527H). The protein was expressed and purified by the following procedure. Bacterial cells from a 50 mL overnight culture were inoculated in 6 L of terrific broth media. Once the E. coli culture reached an OD600 of 0.7, the temperature was lowered to 18° C. and recombinant protein expression was induced by the addition of 0.5 mM IPTG. After overnight incubation, the cells were harvested by centrifugation at […] for 45 min in a Sorvall Lynx 6000 (Thermo Fisher) centrifuge with F9-6×1000 LEX rotor. The cell pellets were stored at −80° C. until purification. […] The final product was 98% pure as determined by SDS-PAGE. The concentration of SHP2 protein was determined from the absorbance at 280 nm wavelength, using the calculated molar extinction coefficient for SHP2 protein of 72770 M^−1 cm^−1.
SHP2 enzymatic assay: Phosphatase activity of full-length human SHP2 wild-type enzyme or SHP2 phosphatase domain was measured using fluorogenic 6,8-difluoro-4-methylumbelliferyl phosphate (DiFMUP; Molecular Probes #D6567) as the substrate. […]

[3] = Single-dose pharmacokinetics, C57BL/6 mouse; format: in vivo, mouse (C57BL/6; details: female, plasma, oral 10 mg/kg, free base
Method: as §1

[4] = female, CD-1, mouse, plasma, IV 1 mg/kg, free base
[5] = female, CD-1, mouse, plasma, oral 10 mg/kg, free base

For `Cc1c(N2CCC3(CC2)CO[C@@H](C)[C@H]3N)nc(C)n(-c2cccc(Cl)c2Cl)c1=O` (atropisomer, axis not shown; (Ra)) [Compound (10b), 6-((3S,4S)-4-amino-3-methyl-2-oxa-8-azaspiro[4.5]decan-8-yl)-3-(Ra)-(2,3-dichlorophenyl)-2,5-dimethylpyrimidin-4(3H)-one], which half-life [1, 4] is on record?
The half-life was 133 min.

What about the AUC(0-t) [1, 4] of the same compound?
Its AUC(0-t) is 1.39 µM·h.

What about the clearance ([1]; female, CD-1, mouse, plasma, IV 1 mg/kg, free base, read-out: Clp (converted)) of the same compound?
The clearance was 25.7 mL/min/kg.

What about the Vd ([1]; female, CD-1, mouse, plasma, IV 1 mg/kg, free base, read-out: Vdss) of the same compound?
Its Vd is 3.84 L/kg.

What about the Cmax [1, 5] of the same compound?
Its Cmax is 4.17 µM.

And the AUC(0-t) [1, 5]?
Its AUC(0-t) is 12.5 µM·h.

What about the Tmax ([1]; female, CD-1, mouse, plasma, oral 10 mg/kg, free base, read-out: Tmax (mean)) of the same compound?
The Tmax was 15 min.

And the Tmax ([1]; female, CD-1, mouse, plasma, oral 300 mg/kg, read-out: mean Tmax)?
The Tmax was 15 min.

What about the F ([1]; oral 10 mg/kg, free base) of the same compound?
Its F is 84.1%.

What about the IC50 [2] of the same compound?
Its IC50 is 13.2 ± 10.6 nM.

What about the Cmax [3] of the same compound?
The Cmax was 5.4 µM.

And the Tmax [3]?
The Tmax was 60 min.

What about the AUC(0-t) ([3]; read-out: AUC0→24) of the same compound?
The AUC(0-t) was 39 µM·h.
